# Assay: recombinant barcode read abundance after kanamycin selection (control-corrected) (log10(CPM+1)); higher = more efficient recombination; sequences stand for … in AGTGCAGAGAAAATCGGCCAGTTTTCTCTGCCTGCAGTCCGCATGCCGT…AGATTTATGCAGCGGACTGCCTTTCTCCCAAAGTGATAAACCGGACAGTATCATGGACCGGTTTTCCCGGTAATCCGTATTTGCAAGGTTGGTTTCACT; site = the 11-nt target
# Method in brief: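 Reported as log10(CPM+1), each value stands for recombination efficiency. That efficiency is the averaged, control-corrected counts per million of barcodes found at recombinant junctions. Cells from a pooled E. coli library pairing targets with IS621 bridge RNA target-binding loops were plated twice on chloramphenicol/ampicillin LB agar (control) and twice on chloramphenicol/ampicillin/kanamycin with 0.1 mM IPTG.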
# 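Note: IS621 recombinase and bridge RNA in Escherichia coli cells.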
row,Sequence,recombinant barcode read abundance (log10)
1,AGTCTAGCTTGGGTTCTAACCTGTTGCTC (site AGTCTAGCTTA),0.62
2,AGTCTGCCTTGGGTTCTAACCTGTTGCTG (site AGTCTGCCTCA),0.686
3,AGTCTGCCTTGGGTTCTAACCTGTTGCTG (site GCCGATACTTG),0.0929
4,AGTCTGGCTTGGGTTCTAACCTGTTGCCT (site AGTCTGGCTAG),0.146
5,AGTCTGGCTTGGGTTCTAACCTGTTGCCT (site TGTCTGGCTAG),0.108
6,AGTGACTCTTGGGTTCTAACCTGTTGCCT (site AGTCTCTCTAG),0.0765
7,AGTGACTCTTGGGTTCTAACCTGTTGCCT (site AGTGACTCTAG),2.32
8,AGTTCCACTTGGGTTCTAACCTGTTGCCT (site AGTTACACTAG),0.0694
9,AGTTCCACTTGGGTTCTAACCTGTTGCCT (site AGTTCCACTAG),0.324
10,AGTTCCACTTGGGTTCTAACCTGTTGCCT (site AGTTGCACTAG),0.0253
11,AGTTCCACTTGGGTTCTAACCTGTTGCCT (site AGTTTCACTAG),0.102
12,AGTTCGTCTTGGGTTCTAACCTGTTGCCG (site AGCTCGTCTCC),0.29
13,AGTTCGTCTTGGGTTCTAACCTGTTGCCG (site AGTTCGTCTCG),0.314
14,AGTTCTCCTTGGGTTCTAACCTGTTGCCG (site AGTTCTCCTCG),0.0496
15,AGTTCTCCTTGGGTTCTAACCTGTTGCCG (site GAGCAGGCTAA),0.0339
16,AGTTGTCCTTGGGTTCTAACCTGTTGCAT (site AGTTGTCCTAA),0.0625
17,AGTTGTCCTTGGGTTCTAACCTGTTGCAT (site AGTTGTCCTAC),0.0713
18,AGTTGTCCTTGGGTTCTAACCTGTTGCAT (site AGTTGTCCTAG),0.0326
19,AGTTGTCCTTGGGTTCTAACCTGTTGCAT (site AGTTGTCCTAT),0.219
20,AGTTGTCCTTGGGTTCTAACCTGTTGCTT (site AGTTGTCCTAA),0.126

row,Sequence,recombinant barcode read abundance (log10)
1,AGTTGTCCTTGGGTTCTAACCTGTTGCTT (site AGTTGTCCTAC),0.0653
2,AGTTGTCCTTGGGTTCTAACCTGTTGCTT (site AGTTGTCCTAG),0.0387
3,AGTTGTCCTTGGGTTCTAACCTGTTGCTT (site AGTTGTCCTAT),0.0416
4,AGTTTCACTTGGGTTCTAACCTGTTGCCT (site AGTTACACTAG),0.11
5,AGTTTCACTTGGGTTCTAACCTGTTGCCT (site AGTTCCACTAG),0.0621
6,AGTTTCACTTGGGTTCTAACCTGTTGCCT (site AGTTGCACTAG),0.0233
7,AGTTTCACTTGGGTTCTAACCTGTTGCCT (site AGTTTCACTAG),0.0755
8,ATAAAGACTTGGGTTCTAACCTGTTGCCT (site ATAAAGACTAG),1.96
9,ATAAAGACTTGGGTTCTAACCTGTTGCCT (site ATCAAGACTAG),0.181
10,ATAAAGACTTGGGTTCTAACCTGTTGCCT (site ATGAAGACTAG),0.212
11,ATAAAGACTTGGGTTCTAACCTGTTGCCT (site ATTAAGACTAG),0.586
12,ATAAATGCTTGGGTTCTAACCTGTTGCCT (site ATAAATGCTAG),1.34
13,ATAAATGCTTGGGTTCTAACCTGTTGCCT (site ATAAGGGCTAG),0.0428
14,ATAACAGCTTGGGTTCTAACCTGTTGCCT (site ATAAAAGCTAG),0.224
15,ATAACAGCTTGGGTTCTAACCTGTTGCCT (site ATAACAGCTAG),1.43
16,ATAACAGCTTGGGTTCTAACCTGTTGCCT (site ATAAGAGCTAG),0.279
17,ATAACAGCTTGGGTTCTAACCTGTTGCCT (site ATAATAGCTAG),0.0968
18,ATAACGGCTTGGGTTCTAACCTGTTGCCT (site ATAACGGCTAG),0.434
19,ATAACGGCTTGGGTTCTAACCTGTTGCCT (site GACGGACCTTA),0.0648
20,ATAAGTGCTTGGGTTCTAACCTGTTGCCA (site ATAAGTGCTTG),1.15

row,Sequence,recombinant barcode read abundance (log10)
1,ATAAGTGCTTGGGTTCTAACCTGTTGCCA (site GTGAGTGCTTG),0.0783
2,ATAATAGCTTGGGTTCTAACCTGTTGCAT (site ATAATAGCTAT),2.02
3,ATAATAGCTTGGGTTCTAACCTGTTGCAT (site GTAATAGCTAT),0.0687
4,ATACGGACTTGGGTTCTAACCTGTTGCTA (site ATAAGGACTTA),0.0991
5,ATACGGACTTGGGTTCTAACCTGTTGCTA (site ATACGGACTTA),2.04
6,ATACGGACTTGGGTTCTAACCTGTTGCTA (site ATAGGGACTTA),0.186
7,ATACGGACTTGGGTTCTAACCTGTTGCTA (site ATATGGACTTA),0.0991
8,ATACTCTCTTGGGTTCTAACCTGTTGCCT (site AGACTCTCTAG),0
9,ATACTCTCTTGGGTTCTAACCTGTTGCCT (site ATACTCTCTAG),2.43
10,ATAGAGTCTTGGGTTCTAACCTGTTGCCG (site ATAGAGTCTCG),1.95
11,ATAGAGTCTTGGGTTCTAACCTGTTGCCG (site GCTCCTCCTAT),0.173
12,ATAGGTACTTGGGTTCTAACCTGTTGCTT (site ATAGGTACTAA),1.65
13,ATAGGTACTTGGGTTCTAACCTGTTGCTT (site CTAGGTACTAA),0.534
14,ATAGGTCCTTGGGTTCTAACCTGTTGCTG (site ATAGGTCCTCA),2.91
15,ATAGGTCCTTGGGTTCTAACCTGTTGCTG (site ATGGGTCCTCG),0.0247
16,ATATGAGCTTGGGTTCTAACCTGTTGCCA (site ATATGAGCTTG),0.884
17,ATATGAGCTTGGGTTCTAACCTGTTGCCA (site TTATGAGCTCG),0.0938
18,ATATGTACTTGGGTTCTAACCTGTTGCCG (site ATATGTACTCG),1.07
19,ATATGTACTTGGGTTCTAACCTGTTGCCG (site ATATGTACTTG),0.167

# Reference: the supplement of paper PMC11208160
